Measurements reported in US8518924B2, “Agent for inhibiting visceral fat accumulation” (Morinaga Milk Industry Co., Ltd., priority 2005, dated 2013).

Tested on: ZDF (Zucker Diabetic Fatty) rats
Assay: Inhibitory effect on visceral fat accumulation (mesenteric fat weight) in high-fat-diet-fed ZDF rats
Assay type: in vivo, rat
Conditions: for Effect of inhibiting visceral fat accumulation (in words): Tukey-Kramer's test vs negative sample; for Mesenteric fat weight as percentage of that of the group administered with the negative sample: oral once a day for 44 days, 45th day; for Mesenteric fat weight: male ZDF rats on high fat diet, oral 1 ml per 400 g body weight once a day for 44 days, measured at 45th day
Procedure: In Example 1, an inhibitory effect of a compound having a lophenol skeleton on visceral fat accumulation was investigated by using ZDF (Zucker Diabetic Fatty) rats that are model animals for obese diabetes.
Compound 3 (4-methylcholest-7-en-3-ol), Compound 4 (4-methylergost-7-en-3-ol), and Compound 5 (4-methylstigmast-7-en-3-ol) which were produced in Preparation Example 1 were used as Test Samples 1, 2, and 3, respectively. Each of the test samples was dissolved in DMSO, and a concentration of each of the compounds in each of the test samples was adjusted with distilled water to be 10 μg/ml, thereby preparing Test Samples 1-1, 2-1, and 3-1. Test Samples 1-2, 2-2, and 3-2 each having the concentration of a compound of 1 μg/ml were prepared.
At 45th day from initiation of the administration, mesenteric fat weights were measured as the visceral fat.

Row | SMILES | Effect of inhibiting visceral fat accumulation (in words) (1 μg/ml) | Mesenteric fat weight as percentage of that of the group administered with the negative sample (10 μg/ml solution) [%] | Effect of inhibiting visceral fat accumulation (in words) (10 μg/ml) | Mesenteric fat weight (1 μg/ml solution) [g] | Mesenteric fat weight (10 μg/ml solution, listed as Test Sample 1-1) [g] | Mesenteric fat weight (10 μg/ml solution, listed as Test Sample 2-1) [g] | Mesenteric fat weight (10 μg/ml solution, listed as Test Sample 3-1) [g]
1 | CC(C)CCCC(C)C1CCC2C3=CCC4C(C)C(O)CCC4(C)C3CCC21C (stereo not drawn) [Compound 3, 4-methylcholest-7-en-3-ol] | tendency to reduce the visceral fat, but no significant effect was observed | 65.0 | significant effects of inhibiting visceral fat accumulation | 5.63 ± 1.25 | 4.48 ± 1.34 |  | 
2 | CC(C)C(C)CCC(C)C1CCC2C3=CCC4C(C)C(O)CCC4(C)C3CCC21C (stereo not drawn) [Compound 4, 4-methylergost-7-en-3-ol] | tendency to reduce the visceral fat, but no significant effect was observed | 54.9 | significant effects of inhibiting visceral fat accumulation | 5.74 ± 1.57 |  | 3.78 ± 0.26 | 
3 | CCC(CCC(C)C1CCC2C3=CCC4C(C)C(O)CCC4(C)C3CCC21C)C(C)C (stereo not drawn) [Compound 5, 4-methylstigmast-7-en-3-ol] | tendency to reduce the visceral fat, but no significant effect was observed | 48.7 | significant effects of inhibiting visceral fat accumulation | 6.10 ± 1.67 |  |  | 3.36 ± 1.67
